In patent publication US8334382B2, “Substituted biaryl piperazinyl-pyridine analogues” (Neurogen Corporation, priority 2004, dated 2012):

Each molecule was assayed against T1, human capsaicin receptor (Homo sapiens, UniProt Q8NER1) (assay: Calcium mobilization assay, determination of antagonist activity). Conditions: capsaicin at EC50; cells expressing human capsaicin receptor; Example 6.
T1 construct: expressed in transfected cells; host or cells: HEK293, stably transfected with pBK-CMV construct
T1 sequence (Q8NER1 whole entry): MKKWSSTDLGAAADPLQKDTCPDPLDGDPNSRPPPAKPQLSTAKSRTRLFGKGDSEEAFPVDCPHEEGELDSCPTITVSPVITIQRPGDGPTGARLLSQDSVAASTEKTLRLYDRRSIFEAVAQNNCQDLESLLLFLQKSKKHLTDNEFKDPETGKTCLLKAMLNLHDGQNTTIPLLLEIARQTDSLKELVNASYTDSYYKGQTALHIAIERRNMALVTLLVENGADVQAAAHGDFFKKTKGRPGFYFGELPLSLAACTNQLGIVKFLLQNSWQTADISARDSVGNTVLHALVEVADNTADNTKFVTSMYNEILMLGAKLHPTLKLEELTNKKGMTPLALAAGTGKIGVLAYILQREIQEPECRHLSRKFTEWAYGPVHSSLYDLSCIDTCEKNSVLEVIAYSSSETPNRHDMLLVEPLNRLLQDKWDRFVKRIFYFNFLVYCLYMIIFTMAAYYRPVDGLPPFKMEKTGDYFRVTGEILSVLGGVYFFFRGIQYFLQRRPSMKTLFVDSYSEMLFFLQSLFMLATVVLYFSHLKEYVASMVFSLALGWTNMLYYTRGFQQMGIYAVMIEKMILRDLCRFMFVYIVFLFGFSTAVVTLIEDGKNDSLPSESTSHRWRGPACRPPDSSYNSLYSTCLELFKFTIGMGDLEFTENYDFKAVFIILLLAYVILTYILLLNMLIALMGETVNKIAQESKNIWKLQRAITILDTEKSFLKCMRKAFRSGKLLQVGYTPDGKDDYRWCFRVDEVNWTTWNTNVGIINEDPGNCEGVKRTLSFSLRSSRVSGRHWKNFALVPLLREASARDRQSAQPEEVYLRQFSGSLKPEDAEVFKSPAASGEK
Format: cell-based
How it was run: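 HEK293 cells stably expressing full-length human TRPV1, loaded with Fluo-3 AM in KRH buffer pH 7.4, preincubated with compound (final 1-5 µM) in the dark at room temperature for 0.5-6 h, then stimulated with capsaicin at its EC50. FLIPR fluorescence gave IC50 as concentration halving the capsaicin response.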

IC50	SMILES
≤ 1 µM	Cc1cc([N+](=O)[O-])cnc1N1CCN(c2cc(-c3ccc(F)c(Cl)c3)nc(N3CCCC3C)n2)CC1 (centres unmarked) [Example 5, 4-(3-Chloro-4-fluoro-phenyl)-6-[4-(3-methyl-5-nitro-pyridin-2-yl)-piperazin-1-yl]-2-(2-methyl-pyrrolidin-1-yl)-pyrimidine]
≤ 1 µM	Cc1cc(-c2nnn[nH]2)cnc1N1CCN(c2cc(-c3ccc(F)cc3)nc(N3CCC[C@H]3C)n2)[C@H](C)C1 [Example 164, 4-(4-Fluoro-phenyl)-6-{2-(R)-methyl-4-[3-methyl-5-(1H-tetrazol-5-yl)-pyridin-2-yl]-piperazin-1-yl}-2-(2-(R)-methyl-pyrrolidin-1-yl)-pyrimidine]
≤ 1 µM	Cc1cc(-c2ncco2)cnc1N1CCN(c2cc(-c3ccc(F)cc3)nc(N3CCC[C@H]3C)n2)[C@H](C)C1 [Example 162, 4-(4-Fluoro-phenyl)-6-[2-(R)-methyl-4-(3-methyl-5-oxazol-2-yl-pyridin-2-yl)-piperazin-1-yl]-2-(2-(R)-methyl-pyrrolidin-1-yl)-pyrimidine]
≤ 1 µM	Cc1cc(C(=O)O)cnc1N1CCN(c2cc(-c3cccc(Cl)c3)nc(N3CCC[C@H]3C)c2)[C@H](C)C1 [Example 175, 6-{4-[2-(3-Chloro-phenyl)-6-(2-(R)-methyl-pyrrolidin-1-yl)-pyridin-4-yl]-3-(R)-methyl-piperazin-1-yl}-5-methyl-nicotinic acid]
≤ 1 µM	Cc1cc(C(=O)N2CCC(c3ccccc3)CC2)cnc1N1CCN(c2cc(-c3ccc(F)cc3)nc(N3CCCC3C)n2)CC1 (centres unmarked) [Example 130, 4-(4-fluorophenyl)-6-(4-{3-methyl-5-[(4-phenylpiperidin-1-yl)carbonyl]pyridin-2-yl}piperazin-1-yl)-2-(2-methylpyrrolidin-1-yl)pyrimidine]
≤ 1 µM	Cc1cc(C(=O)O)cnc1N1CCN(c2cc(-c3ccc(F)c(Cl)c3)nc(N(C)C(C)C)n2)CC1 [Example 161, 6-{4-[6-(3-Chloro-4-fluoro-phenyl)-2-(isopropyl-methyl-amino)-pyrimidin-4-yl] - piperazin-1-yl}-5-methyl-nicotinic acid]
≤ 1 µM	C[C@@H]1COCCN1c1nc(-c2ccc(F)cc2)cc(N2CCN(c3ncc(C(=O)O)cc3Cl)CC2)n1 [Example 159, 5-Chloro-6-{4-[6-(4-fluoro-phenyl)-2-(3-(R)-methyl-morpholin-4-yl)-pyrimidin-4-yl]-piperazin-1-yl}-nicotinic acid]
≤ 1 µM	Cc1cc(CO)cnc1N1CCN(c2cc(-c3ccnc(C(C)C)c3)nc(N3CCCC3C)n2)CC1 (centres unmarked) [Example 74, (6-{4-[6-(2-Isopropyl-pyridin-4-yl)-2-(2-methyl-pyrrolidin-1-yl)-pyrimidin-4-yl]-piperazin-1-yl}-5-methyl-pyridin-3-yl)-methanol]
≤ 1 µM	C[C@@H]1CN(c2ncc(C(N)=O)cc2Cl)CCN1c1cc(-c2ccc(F)c(Cl)c2)ncn1 [Example 86, 5-Chloro-6-{4-[6-(3-chloro-4-fluoro-phenyl)-pyrimidin-4-yl]-3-(R)-methyl-piperazin-1-yl}-nicotinamide]
≤ 1 µM	Cc1cc(C(=O)O)cnc1N1CCN(c2cc(-c3ccc(F)cc3)nc(N3CCC[C@H]3C)n2)[C@H](C)C1 [Example 95, 6-{4-[6-(4-Fluoro-phenyl)-2-(2-(R)-methyl-pyrrolidin-1-yl)-pyrimidin-4-yl]-3-(R)-methyl-piperazin-1-yl}-5-methyl-nicotinic acid]
≤ 1 µM	C[C@@H]1CN(c2ncc(CCCO)cc2Cl)CCN1c1cc(-c2ccc(F)c(Cl)c2)nc(N2CCC[C@H]2C)n1 (relative stereo) [Example 193, rel-3-{5-chloro-6-[(3R)-4-{6-(3-chloro-4-fluorophenyl)-2-[(2R)-2-methylpyrrolidin-1-yl]pyrimidin-4-yl}-3-methylpiperazin-1-yl]pyridin-3-yl}propan-1-ol]
≤ 1 µM	COC1CCN(C(=O)c2cnc(N3CCN(c4cc(-c5ccc(F)cc5)nc(N5CCCC5C)n4)CC3)c(C)c2)CC1 (centres unmarked) [Example 141, 4-(4-fluorophenyl)-6-(4-{5-[(4-methoxypiperidin-1-yl)carbonyl]-3-methylpyridin-2-yl}piperazin-1-yl)-2-(2-methylpyrrolidin-1-yl)pyrimidine]
≤ 1 µM	CC1CCCN1c1nc(-c2ccc(F)cc2)cc(N2CCN(c3ncc(C(N)=O)cc3Cl)CC2)n1 (centres unmarked) [Example 40, 5-Chloro-6-{4-[6-(4-fluoro-phenyl)-2-(2-methyl-pyrrolidin-1-yl)-pyrimidin-4-yl]-piperazin-1-yl}-nicotinamide]
≤ 1 µM	Cc1cc(C(=O)NCc2cccs2)cnc1N1CCN(c2cc(-c3ccc(F)cc3)nc(N3CCCC3C)n2)CC1 (centres unmarked) [Example 118, 6-{4-[6-(4-fluorophenyl)-2-(2-methylpyrrolidin-1-yl)pyrimidin-4-yl]piperazin-1-yl}-5-methyl-N-(2-thienylmethyl) nicotinamide]
≤ 1 µM	CC(=O)NC1CCN(C(=O)c2cnc(N3CCN(c4cc(-c5ccc(F)cc5)nc(N5CCCC5C)n4)CC3)c(C)c2)C1 (stereo not drawn) [Example 140, N-{l-[(6-{4-[6-(4-fluorophenyl)-2-(2-methylpyrrolidin-1-yl)pyrimidin-4-yl]piperazin-1-yl}-5-methylpyridin-3-yl)carbonyl]pyrrolidin-3-yl}acetamide]
≤ 1 µM	Cc1cccc(-c2cc(N3CCN(c4ncc(CO)cc4C)C[C@H]3C)nc(N3CCCC3C)n2)c1 (stereo partly drawn) [Example 64, (5-Methyl-6-{3-(R)-methyl-4-[2-(2-methyl-pyrrolidin-1-yl)-6-m-tolyl-pyrimidin-4-yl]-piperazin-1-yl}-pyridin-3-yl)-methanol]
≤ 1 µM	CCOCCNC(=O)c1cnc(N2CCN(c3cc(-c4ccc(F)cc4)nc(N4CCCC4C)n3)CC2)c(C)c1 (centres unmarked) [Example 119, N-(2-ethoxyethyl)-6-{4-[6-(4-fluorophenyl)-2-(2-methylpyrrolidin-1-yl)pyrimidin-4-yl]piperazin-1-yl}-5-methylnicotinamide]
≤ 1 µM	Cc1cc(CO)cnc1N1CCN(c2cc(-c3ccccc3)nc(N3CCCC3C)n2)[C@H](C)C1 (stereo partly drawn) [Example 63, (5-Methyl-6-{3-(R)-methyl-4-[2-(2-methyl-pyrrolidin-1-yl)-6-phenyl-pyrimidin-4-yl]-piperazin-1-yl}-pyridin-3-yl)-methanol]
≤ 1 µM	CC1CCCN1c1nc(-c2ccc(F)cc2)cc(N2CCN(c3ncc(CO)cc3Cl)CC2)n1 (centres unmarked) [Example 26, (5-Chloro-6-{4-[6-(4-fluoro-phenyl)-2-(2-methyl-pyrrolidin-1-yl)-pyrimidin-4-yl]-piperazin-1-yl}-pyridin-3-yl)-methanol]
≤ 1 µM	C[C@@H]1CN(c2ncc(CCN(C)C)cc2Cl)CCN1c1cc(-c2ccc(F)c(Cl)c2)nc(N2CCC[C@H]2C)n1 [Example 186, 2-[5-chloro-6-((3R)-4-{6-(3-chloro-4-fluorophenyl)-2-[(2R)-2-methylpyrrolidin-1-yl]pyrimidin-4-yl}-3-methylpiperazin-1-yl)pyridin-3-yl]-N,N-dimethylethanamine]
≤ 1 µM	O=C(O)c1cnc(N2CCN(c3cc(-c4ccc(F)cc4)nc(N4CCC[C@H]4CO)n3)CC2)c(Cl)c1 [Example 158, 5-Chloro-6-{4-[6-(4-fluoro-phenyl)-2-(2-(S)-hydroxymethyl-pyrrolidin-1-yl)-pyrimidin-4-yl]-piperazin-1-yl}-nicotinic acid]
≤ 1 µM	CC(C)N(C)c1nc(-c2ccc(F)cc2)cc(N2CCN(c3ncc(C(=O)O)cc3Cl)CC2)n1 [Example 160, 5-Chloro-6-{4-[6-(4-fluoro-phenyl)-2-(isopropyl-methyl-amino)-pyrimidin-4-yl]-piperazin-1-yl}-nicotinic acid]
≤ 1 µM	Cc1cc(C(=O)O)cnc1N1CCN(c2cc(-c3ccc(F)cc3)nc(N(C)C(C)C)n2)[C@H](C)C1 [Example 153, 6-{4-[6-(4-Fluoro-phenyl)-2-(isopropyl-methyl-amino)-pyrimidin-4-yl]-3-(R)-methyl-piperazin-1-yl}-5-methyl-nicotinic acid]
≤ 1 µM	Cc1cc(C(=O)O)cnc1N1CCN(c2cc(-c3ccnc(C(C)C)c3)nc(N3CCCC3C)n2)[C@H](C)C1 (stereo partly drawn) [Example 80, 6-{4-[6-(2-Isopropyl-pyridin-4-yl)-2-(2-methyl-pyrrolidin-1-yl)-pyrimidin-4-yl]-3-(R)-methyl-piperazin-1-yl}-5-methyl-nicotinic acid]
≤ 1 µM	CC1CCCN1c1nc(-c2ccc(F)c(Cl)c2)cc(N2CCN(c3ncc(C(N)=O)cc3Cl)CC2)n1 (stereo not drawn) [Example 15, 5-Chloro-6-{4-[6-(3-chloro-4-fluoro-phenyl)-2-(2-methyl-pyrrolidin-1-yl)-pyrimidin-4-yl]-piperazin-l-yl}-nicotinamide]
≤ 1 µM	C[C@@H]1CN(c2ncc(CC#N)cc2Cl)CCN1c1cc(-c2ccc(F)cc2)nc(N2CCC[C@H]2C)n1 [Example 100, (5-Chloro-6-{4-[6-(4-fluoro-phenyl)-2-(2-(R)-methyl-pyrrolidin-1-yl)-pyrimidin-4-yl]-3-(R)-methyl-piperazin-1-yl}-pyridin-3-yl)-acetonitrile]
≤ 1 µM	Cc1cc(C(=O)NCCCN(C)C)cnc1N1CCN(c2cc(-c3ccc(F)cc3)nc(N3CCCC3C)n2)CC1 (centres unmarked) [Example 116, N-[3-(dimethylamino)propyl]-6-{4-[6-(4-fluorophenyl)-2-(2-methylpyrrolidin-1-yl)pyrimidin-4-yl]piperazin-1-yl}-5-methylnicotinamide]
≤ 1 µM	CCOC(=O)c1cccnc1N1CCN(c2cc(-c3ccc(F)c(Cl)c3)nc(N3CCOCC3)n2)CC1 [Example 1, 2-{4-[6-(3-Chloro-4-fluoro-phenyl)-2-morpholin-4-yl-pyrimidin-4-yl]-piperazin-1-yl}-nicotinic acid ethyl ester]
≤ 1 µM	C[C@@H]1CCCN1c1nc(-c2ccc(F)cc2)cc(N2CCN(c3ncc(C(=O)O)cc3Cl)CC2)n1 [Example 92, 5-Chloro-6-{4-[6-(4-fluoro-phenyl)-2-(2-(R)-methyl-pyrrolidin-1-yl)-pyrimidin-4-yl]-piperazin-1-yl}-nicotinic acid]
